Test results published in patent US10905661B2, “Disulfiram and metal salt staggered oral dosing regimen and staggered-release oral unit dosage forms” (Cantex Pharmaceuticals, Inc., priority 2016, dated 2021).

What was measured:
[1] = Stability of disulfiram with zinc gluconate or copper gluconate after 4 weeks at 40° C.; assay type: physicochemical; conditions: 4 weeks @ 40° C./75% RH; Actual Conc. 0.040 mg/mL
Description: Stability of disulfiram and zinc gluconate was tested after 4 weeks at 40° C. in 0.1 N HCl. (Table 24).

[2] = Compatibility of disulfiram and zinc gluconate in 0.1N HCl (color, precipitate); assay type: physicochemical
Description: Compatibility of disulfiram and zinc gluconate for simultaneous oral administration was assessed. […] and 40 mg of disulfiram were mixed in 50 mL volumetric flasks, and 0.1N HCl was added to the flasks. […] A control was run in parallel: 0.1N HCl solution containing 50 mg of zinc gluconate alone.

Compound	Conc. (disulfiram found) [1] [ng/mL]	color change ([2]; 25° C./ambient humidity for 2 days)	precipitate / clarity of solution ([2]; T0 and T=2 days, 25° C.)
CCN(CC)C(=S)SSC(=S)N(CC)CC [DSF, bis(diethylthiocarbamoyl) disulfide]	40000		
zinc gluconate [zinc gluconate alone]		no color change	remained clear
